Active and inactive are the calls of the source. The rule behind the calls is not given here.
Tests used:
RG2 [1] = test: Induction of DNA damage in rat RG2 cells assessed as Chk1 phosphorylation at ser345 at 206 uM after 48 hrs by Western blot analysis (reference value: 1); assay type: functional
DBTRG-05MG [2] = test: Induction of cell cycle arrest in human DBTRG-05MG cells assessed as CyclinB1 expression at 206 uM after 48 hrs by Western blot analysis (reference value: 1); assay type: functional
RG2 [3] = test: Induction of cell cycle arrest in rat RG2 cells assessed as accumulation at G0/G1 phase at 206 uM after 12 hrs by propidium iodide staining based flow cytometric analysis (reference value: 57.81 +/- 1.9%); assay type: functional
RG2 [4] = test: Synergistic cytotoxicity against rat RG2 cells assessed as combination index at 112.4 uM after 48 hrs in presence of 515.1 uM TMZ by MTT assay; assay type: functional
RG2 [5] = test: Synergistic cytotoxicity against rat RG2 cells assessed as combination index at 89.9 uM after 48 hrs in presence of 515.1 uM TMZ by MTT assay; assay type: functional
DBTRG-05MG [6] = test: Induction of cell cycle arrest in human DBTRG-05MG cells assessed as accumulation at S phase at 112.4 uM after 24 hrs by propidium iodide staining based flow cytometric analysis (reference value: 22.76 +/- 1.56%); assay type: functional
[7] = Synergistic cytotoxicity against rat CTX TNA2 cells assessed as combination index at 134.9 uM after 48 hrs in presence of 412.1 uM TMZ by MTT assay; assay type: cell-based; details: ctx tna2, 48 h
DBTRG-05MG [8] = test: Potentiation of TMZ-induced antitumor activity against human DBTRG-05MG cells xenografted in BALB/c nude mouse assessed as increase in apoptotic cells at 75 mg/kg, sc co-treated with TMZ for 18 days by TUNEL assay; assay type: functional, organism-based; details: time 18.0 day
DBTRG-05MG [9] = test: Induction of apoptosis in human DBTRG-05MG cells assessed as phosphorylated PARP expression at 112.4 uM after 48 hrs by Western blot analysis (reference value: 1); assay type: functional
[10] = Synergistic cytotoxicity against rat CTX TNA2 cells assessed as combination index at 112.4 uM after 48 hrs in presence of 412.1 uM TMZ by MTT assay; assay type: cell-based; details: ctx tna2, 48 h
RG2 [11] = test: Induction of cell cycle arrest in rat RG2 cells assessed as accumulation at G0/G1 phase at 112.4 uM after 6 hrs in presence of TMZ by propidium iodide staining based flow cytometric analysis (reference value: 57.81 +/- 1.9%); assay type: functional
[12] = Synergistic cytotoxicity against rat CTX TNA2 cells assessed as combination index at 89.9 uM after 48 hrs in presence of 515.1 uM TMZ by MTT assay; assay type: cell-based; details: ctx tna2, 48 h
DBTRG-05MG [13] = test: Induction of apoptosis in human DBTRG-05MG cells assessed as increase in chromatin condensation at 112.4 uM after 48 hrs by TUNEL assay; assay type: functional, cell-based
DBTRG-05MG [14] = test: Synergistic cytotoxicity against human DBTRG-05MG cells assessed as synergistic effect index at 112.4 uM after 48 hrs in presence of 412.1 uM TMZ by MTT assay; assay type: functional

Question: Which results are given for `Cn1nnc2c(C(N)=O)ncn2c1=O` [TEMOZOLOMIDE]?
Answer: fold change (FC) (RG2 [1]): 1.8; fold change (FC) (DBTRG-05MG [2]): 1.4; Activity (RG2 [3]): 49.55%

Question: Which CI (RG2 [4]) does the source give for `C[C@@H]1CC[C@H]2C(C)(C)[C@H]3C[C@@]12CC[C@@]3(C)O` [CEDROL] here?
Answer: 1.06

Question: And the CI (RG2 [5])?
Answer: 1.38

Question: And the Activity (DBTRG-05MG [6])?
Answer: 16.03%

Question: And the CI [7]?
Answer: 1.13

Question: And the Activity (DBTRG-05MG [8])?
Answer: Active

Question: And the “fold change (FC)” value (DBTRG-05MG [9])?
Answer: 0.7

Question: What about the CI [10] of the same compound?
Answer: 1.1

Question: And the Activity (RG2 [11])?
Answer: 61.59%

Question: What about the CI [12] of the same compound?
Answer: 0.89

Question: What about the Activity (DBTRG-05MG [13]) of the same compound?
Answer: Active

Question: What about the Activity_index (DBTRG-05MG [14]) of the same compound?
Answer: 0.86
